Source: patent US20180362598A1 (priority 2016, published 2018)

test system: insect gut protease (X condition); type: biochemical

| Substance | % of Max Slope X |
| --- | --- |
| IFVALKGS | 69% |
| LFVALKGS | 92% |
| LFVRLRGS | 94% |
| LKLFVGS | 98% |
| LRLFVGS | 74% |
